Key:
Enterococcus spp. = assay: minimum inhibitory concentration (MIC)
Protocol: (§1)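 Broth microdilution MIC (Sensititre BOPO7F bovine plate, CLSI methods) of 19 antimicrobials against field isolates of P. multocida, M. haemolytica, H. somni (deep nasopharyngeal swabs) and E. coli, Enterococcus spp. (rectal swabs) from weaned dairy heifers. Incubation 16-24 h at 35 C. MIC is the lowest concentration preventing visible growth. Values with <= or > lie at the tested range limits. Trimethoprim-sulfamethoxazole is given as the trimethoprim component of a 1:19 mixture.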

Histophilus somni = assay: minimum inhibitory concentration (MIC)
Protocol: as §1

[1] = isolate (source animal id): 123
[2] = isolate (source animal id): 183
[3] = isolate (source animal id): 228
[4] = isolate (source animal id): 230
[5] = isolate (source animal id): 239
[6] = isolate (source animal id): 241
[7] = isolate (source animal id): 246
[8] = isolate (source animal id): 247
[9] = isolate (source animal id): 250
[10] = isolate (source animal id): 252
[11] = isolate (source animal id): 296
[12] = isolate (source animal id): 341

Measured: minimum inhibitory concentration

CCCN1C[C@H](C)[C@@H](O)[C@](C)(O)[C@@H](CC)OC(=O)[C@H](C)[C@@H](O[C@H]2C[C@@](C)(OC)[C@@H](O)[C@H](C)O2)[C@H](C)[C@@H](O[C@@H]2O[C@H](C)C[C@H](N(C)C)[C@H]2O)[C@](C)(O)C[C@H]1C [Gamithromycin]
8 µg/mL: Enterococcus spp.; [3] | Enterococcus spp.; [4]
> 8 µg/mL: Enterococcus spp.; isolate (source animal id): 35 | Enterococcus spp.; isolate (source animal id): 122 | Enterococcus spp.; isolate (source animal id): 158 | Enterococcus spp.; isolate (source animal id): 175 | Enterococcus spp.; isolate (source animal id): 235 | Enterococcus spp.; [6] | Enterococcus spp.; [8] | Enterococcus spp.; [10] | Enterococcus spp.; isolate (source animal id): 268 | Enterococcus spp.; isolate (source animal id): 285 | Enterococcus spp.; isolate (source animal id): 310 | Enterococcus spp.; [12] | Histophilus somni; isolate (source animal id): 142 | Histophilus somni; isolate (source animal id): 147 | Histophilus somni; isolate (source animal id): 154 | Histophilus somni; isolate (source animal id): 156
≤ 1 µg/mL: Enterococcus spp.; isolate (source animal id): 2 | Enterococcus spp.; isolate (source animal id): 42 | Enterococcus spp.; isolate (source animal id): 88 | Enterococcus spp.; isolate (source animal id): 91 | Enterococcus spp.; isolate (source animal id): 111 | Enterococcus spp.; [1] | Enterococcus spp.; isolate (source animal id): 133 | Enterococcus spp.; isolate (source animal id): 168 | Enterococcus spp.; isolate (source animal id): 169 | Enterococcus spp.; isolate (source animal id): 171 | Enterococcus spp.; isolate (source animal id): 177 | Enterococcus spp.; isolate (source animal id): 181 | Enterococcus spp.; isolate (source animal id): 182 | Enterococcus spp.; isolate (source animal id): 187 | Enterococcus spp.; isolate (source animal id): 190 | Enterococcus spp.; isolate (source animal id): 194 | Enterococcus spp.; isolate (source animal id): 195 | Enterococcus spp.; isolate (source animal id): 197 | Enterococcus spp.; isolate (source animal id): 211 | Enterococcus spp.; isolate (source animal id): 222 | Enterococcus spp.; isolate (source animal id): 223 | Enterococcus spp.; isolate (source animal id): 236 | Enterococcus spp.; isolate (source animal id): 244 | Enterococcus spp.; [7] | Enterococcus spp.; [9] | Enterococcus spp.; isolate (source animal id): 282 | Enterococcus spp.; isolate (source animal id): 289 | Enterococcus spp.; isolate (source animal id): 290 | Enterococcus spp.; [11] | Enterococcus spp.; isolate (source animal id): 298 | Enterococcus spp.; isolate (source animal id): 301 | Enterococcus spp.; isolate (source animal id): 320 | Enterococcus spp.; isolate (source animal id): 331 | Enterococcus spp.; isolate (source animal id): 333 | Histophilus somni; isolate (source animal id): 3 | Histophilus somni; isolate (source animal id): 4 | Histophilus somni; isolate (source animal id): 7 | Histophilus somni; isolate (source animal id): 14 | Histophilus somni; isolate (source animal id): 15 | Histophilus somni; isolate (source animal id): 17 | Histophilus somni; isolate (source animal id): 18 | Histophilus somni; isolate (source animal id): 20 | Histophilus somni; isolate (source animal id): 23 | Histophilus somni; isolate (source animal id): 45 | Histophilus somni; isolate (source animal id): 53 | Histophilus somni; isolate (source animal id): 83 | Histophilus somni; isolate (source animal id): 88 | Histophilus somni; isolate (source animal id): 92 | Histophilus somni; isolate (source animal id): 93 | Histophilus somni; isolate (source animal id): 99 | Histophilus somni; isolate (source animal id): 100 | Histophilus somni; isolate (source animal id): 105 | Histophilus somni; isolate (source animal id): 107 | Histophilus somni; isolate (source animal id): 108 | Histophilus somni; isolate (source animal id): 109 | Histophilus somni; isolate (source animal id): 110 | Histophilus somni; isolate (source animal id): 117 | Histophilus somni; isolate (source animal id): 121 | Histophilus somni; [1] | Histophilus somni; isolate (source animal id): 124 | Histophilus somni; isolate (source animal id): 127 | Histophilus somni; isolate (source animal id): 128 | Histophilus somni; isolate (source animal id): 132 | Histophilus somni; isolate (source animal id): 135 | Histophilus somni; isolate (source animal id): 140 | Histophilus somni; isolate (source animal id): 141 | Histophilus somni; isolate (source animal id): 144 | Histophilus somni; isolate (source animal id): 151 | Histophilus somni; isolate (source animal id): 153 | Histophilus somni; isolate (source animal id): 157 | Histophilus somni; isolate (source animal id): 176 | Histophilus somni; [2] | Histophilus somni; isolate (source animal id): 186 | Histophilus somni; isolate (source animal id): 196 | Histophilus somni; isolate (source animal id): 198 | Histophilus somni; isolate (source animal id): 200 | Histophilus somni; isolate (source animal id): 206 | Histophilus somni; isolate (source animal id): 208 | Histophilus somni; isolate (source animal id): 210 | Histophilus somni; isolate (source animal id): 212 | Histophilus somni; isolate (source animal id): 215 | Histophilus somni; isolate (source animal id): 216 | Histophilus somni; isolate (source animal id): 218 | Histophilus somni; isolate (source animal id): 219 | Histophilus somni; isolate (source animal id): 224 | Histophilus somni; [3] | Histophilus somni; [4] | Histophilus somni; isolate (source animal id): 233 | Histophilus somni; isolate (source animal id): 238 | Histophilus somni; [5] | Histophilus somni; [6] | Histophilus somni; isolate (source animal id): 242 | Histophilus somni; isolate (source animal id): 243 | Histophilus somni; isolate (source animal id): 245 | Histophilus somni; [7] | Histophilus somni; [8] | Histophilus somni; isolate (source animal id): 248 | Histophilus somni; [9] | Histophilus somni; isolate (source animal id): 251 | Histophilus somni; [10] | Histophilus somni; isolate (source animal id): 254 | Histophilus somni; isolate (source animal id): 258 | Histophilus somni; isolate (source animal id): 259 | Histophilus somni; isolate (source animal id): 262 | Histophilus somni; isolate (source animal id): 264 | Histophilus somni; isolate (source animal id): 265 | Histophilus somni; isolate (source animal id): 266 | Histophilus somni; isolate (source animal id): 267 | Histophilus somni; isolate (source animal id): 269 | Histophilus somni; isolate (source animal id): 271 | Histophilus somni; isolate (source animal id): 272 | Histophilus somni; isolate (source animal id): 274 | Histophilus somni; isolate (source animal id): 276 | Histophilus somni; isolate (source animal id): 278 | Histophilus somni; isolate (source animal id): 280 | Histophilus somni; isolate (source animal id): 281 | Histophilus somni; isolate (source animal id): 283 | Histophilus somni; isolate (source animal id): 288 | Histophilus somni; isolate (source animal id): 291 | Histophilus somni; isolate (source animal id): 292 | Histophilus somni; [11] | Histophilus somni; isolate (source animal id): 306 | Histophilus somni; isolate (source animal id): 336 | Histophilus somni; isolate (source animal id): 337 | Histophilus somni; [12]
2 µg/mL: Enterococcus spp.; isolate (source animal id): 44 | Enterococcus spp.; isolate (source animal id): 79 | Enterococcus spp.; isolate (source animal id): 92 | Enterococcus spp.; [2]
4 µg/mL: Enterococcus spp.; isolate (source animal id): 214 | Enterococcus spp.; [5] | Histophilus somni; isolate (source animal id): 130 | Histophilus somni; isolate (source animal id): 146
